Data taken from patent US20260207824A1, “GALLIUM-LOADED HYDROGELS FOR BONE TREATMENT” (NORTHEAST OHIO MEDICAL UNIVERSITY, priority 2022, published 2026).

Tests used:
Cathepsin K (CTSK) = assay: CTSK ELISA of cell media during bone resorption, RAW 264.7; type: cell-based, mouse; set-up: dose or concentration left out as unconfirmed
Experimental: Cathepsin K (CTSK) assay was conducted during bone resorption studies (as described above) as a useful tool to assess the effects of GaMH treatment on OC function. Supernatant from treated/untreated wells after the third treatment of differentiation factors was collected and spun down at 2000g for 10 minutes at 4° C. The supernatant was then assessed for its CTSK concentration using the mouse CTSK/Cathepsin K Sandwich ELISA kit as per manufacture protocol.

[1] = test system: murine hematopoietic stem cells (mHSCs); assay: OC differentiation of murine hematopoietic stem cells with M-CSF and RANKL; type: cell-based, C57BL/6 mice
Experimental: All mice were housed and maintained at Northeast Ohio Medical University according to the guidelines of the Institutional Animal Care and Use Committee. Bone marrow cells were flushed from the femora, and tibiae were extracted from euthanized C57BL/6 mice (male, 6-8 weeks) as described previously. Xing L. and B.F. Boyce, Methods Mol Biol, 1130: p. 307-313(2014). The flushed cells were incubated overnight to separate hematopoietic (in supernatant) and mesenchymal (adherent) stem cells. The supernatant was then collected and seeded at the required density based on the type of well plate used (96 well plate: 2×10^5 cells/well & 24 well plate: 1.5×10^6 cells per well-day 0) in culture media supplemented with 30 ng/ml of M-CSF. […] On day-6, fresh media supplemented with M-CSF & RANKL were added to the differentiating cells. On day-7, the plates were fixed and evaluated for TRAP activity and counted for the number of TRAP-stained multinucleated osteoclasts formed similarly as mentioned above.

RAW 264.7 cells [2] = assay: Biocompatibility (MTT cell viability) of GaAcAc in pre-osteoclastic cells; type: cell-based, murine; conditions: GaAcAc 10-50 μg/mL, 37° C., vs untreated control
Experimental: (§1) RAW 264.7 (pre-osteoclast) and MC3T3 (pre-osteoblast) cells were cultured and maintained in DMEM & AMEM supplemented with 10% FBS and 1% PenStrep in a humidified incubator at 37° C. and 5% CO2 conditions. RAW and MC 3 T3 cells, upon 70-80% confluency, were gently detached using a cell scraper and/or 0.25% v/v trypsin/EDTA. The detached cell suspension was collected and centrifuged at 1500 RPM for 5 minutes and seeded accordingly to the requirement for each experiment.
(§2) After the stipulated time of incubation, cell viability was measured by MTT assay using untreated control cells as a reference.

OCs from RAW 264.7 cells = assay: Pit resorption assay on bovine cortical bone slices, OCs from RAW 264.7; type: cell-based, murine; conditions: vs positive control
Experimental: To assess the effects of various treatments on OC function, we assessed the possible anti-resorptive effect via pit resorption assay. Briefly, bovine cortical bone slices were cleaned and sterilized as per the manufacturer's instructions and placed in a 24-well plate. The study was carried out using OC derived from either RAW 264.7 differentiation or murine hematopoietic stem cells (mHSCs).
Using OCs from RAW 264.7 cells, the detached pre-OC cells were seeded on top of the sanitized bovine cortical bone slice using 1.5×10^5 cells/cm^2 supplemented with a complete growth medium on day 0. […] Subsequent treatment with complete media containing RANKL occurred every two days for seven days. After seven days, the wells were aspirated and processed for further analysis.
To assess the osteoclastic resorptive effect of the wells with or without treatment, the bone slices were fixed with 10% formaldehyde and initially TRAP-stained, as reported. The bone slices were thoroughly cleaned with cotton swab and strained with 0.5% toluidine blue stain and incubated for three minutes at room temperature. The slices were then washed with water five times and patted dry. The pits formed on the bone slices, depicting OC function, were evaluated.

MC3T3 cells = assay: Biocompatibility (MTT cell viability) of GaAcAc in pre-osteoblastic cells; type: cell-based; conditions: GaAcAc 10-50 μg/mL, 37° C., vs untreated control
Experimental: as §1, §2

RAW 264.7 cells [3] = assay: OC differentiation of RAW 264.7 cells with RANKL (TRAP activity, OC count, TRAP staining); type: cell-based, murine; conditions: for TRAP activity: vs positive control (RANKL alone); for number of TRAP-stained OCs (OC count): vs positive control, p<0.0001
Experimental: Pre-osteoclast (RAW 264.7) cells were differentiated by treating the cells with culture media supplemented with or without different concentration of F127 hydrogel (HG) leachates and 30 ng/ml RANKL. The cells were then assessed for TRAP activity and stained. (A) TRAP activity; (B) OC count. Only cells which have 3 or more nuclei and were TRAP stained, i.e., pink color were counted. Each data point represents Mean±SD; n=4 wells. *** p<0.0001, *p<0.01 vs RANKL.
RAW 264.7 (Pre-OC) cells were seeded at a density of 1.5×10^5 cells/cm^2 (day 0) in a 24-well bottom dish of an insert plate and incubated overnight for adherence. Subsequently, (day 1), cells were treated with growth media supplemented with 30 ng/ml of RANKL (positive control) alone or RANKL (30 ng/ml) together with various treatments-GaAcAc solution, MH, or GaMH. […] After the initial treatment and RANKL supplementation, cells in all treatment groups (except untreated control) received RANKL supplementation on day 3 to induce OC formation. On day 4, mature OCs were fixed at 4% paraformaldehyde for 10 minutes at room temperature and evaluated for the extent of OC differentiation based on tartrate-resistant acid phosphatase (TRAP) activity and stained with TRAP staining solution. TRAP (pink colored) stained and multinucleated (≥3 nuclei) cells according to earlier reported methods. Abdelmagid et al., J Biol Chem, 290(33): p. 20128-46 (2015).

cFos, NFAT2, TRAF6, TRAP = assay: Western blotting of OC differentiation markers; type: cell-based, murine; conditions: vs positive control (RANKL)
Experimental: To investigate the effects on OC differentiation, Pre-OC (RAW 264.7) cells were seeded, treated, and differentiated with various treatments as described under OC differentiation. Afterward, cells were lysed with 100 μL of RIPA buffer containing protease inhibitor. The lysates were collected and centrifuged at 1500 RPM for 10 minutes and analyzed for their protein content via the BCA protein assay kit. Protein samples (20 μg) were separated via 10% SDS-page gel and transferred onto a polyvinylidene fluoride (PVDF) membrane. The membrane was blocked with a respective blocking buffer, either 5% BSA or non-fat dry milk, for an hour. After blocking, the membranes were washed with 1× TBST buffer and later probed with primary antibodies; NFAT2, TRAP, TRAF6 and cFos with GAPDH as a loading control, diluted with 2% respective blocking buffer overnight at 4° C., followed by a 1-hour incubation with secondary HRP conjugated anti-rabbit IgG secondary antibody. The blots were visualized using the Fluorchem system.

[4] = In-vivo toxicity of GaAcAc solution based on weight of animals; conditions: 100 μL of 100 μg/mL subcutaneously 1-3×/week for 4 weeks
Experimental: Groups included in the study are: control: No injections; 1×/week: 100 μL of 100 μg/mL Ga solution injected subcutaneously in the back once per week for 4 weeks; 2×/week: 100 μL of 100 μg/mL Ga solution injected subcutaneously in the back twice per week for 4 weeks; 3×/week: 100 μL of 100 μg/mL Ga solution injected subcutaneously in the back three times per week for 4 weeks.

[5] = test system: OC differentiation and function; conditions: earlier studies; cited from earlier work
[6] = In-vivo retention by IVIS imaging with ICG marker; set-up: species or system BALB/c mice
Experimental: In-vivo retention studies were carried out in healthy BALB/c mice using indocyanine green (ICG) as the marker with monitoring via the in-vivo imaging system (IVIS) Lumina XRMS series III (PerkinElmer, USA). All animal studies were performed according to a protocol approved by the Institutional Animal Care and Use Committee of Northeast Ohio Medical University.
All treatments were administered by a single periosseous (intramuscular, bone adjacent) injection in the lower right hindlimb. The animals were observed via IVIS at a selected time point to obtain total radiant efficiency of the injection site with an excitation set at 780 nm and emission at 845 nm based on the earlier reported method. Okubo et al., International Journal of Pharmaceutics, 575: p. 118845(2020 ).

CC(=O)/C=C(/C)[O][Ga]([O]/C(C)=C\C(C)=O)[O]/C(C)=C\C(C)=O [GaAcAc, gallium acetylacetonate]
reduction in level of CTSK (Cathepsin K (CTSK); 50 GaAcAc solution): 4 times reduction
reduction in CTSK concentration (Cathepsin K (CTSK); GaAcAc solution (10)): 1.4 times reduction
GaAcAc concentrations with significant inhibition of OC differentiation and OC count ([1]; dose-dependent, p<0.0001): greater than 25 μg/mL
OC differentiation and OC counts ([1]; mHSCs): suppressed OC differentiation and OC counts
viability of pre-OC cells (RAW 264.7 cells [2]): did not affect the viability
resorption pits on bone slices (OCs from RAW 264.7 cells; 10 μg/mL GaAcAc): slightly reduced
number of pits formed (OCs from RAW 264.7 cells; 50 μg/mL): significantly decrease the number of pits formed
viability of pre-OB cells (MC3T3 cells): did not affect the viability
TRAP staining (representative images) (RAW 264.7 cells [3]; 10 μg/mL): decrease in TRAP-stained cells
TRAP activity (RAW 264.7 cells [3]; 10 μg/mL): remarkable decrease in TRAP activity
number of TRAP-stained OCs (OC count) (RAW 264.7 cells [3]; 10 μg/mL): significant reduction in the number of OCs
TRAP staining (representative images) (RAW 264.7 cells [3]; 50 μg/mL): complete absence of multinucleated and TRAP-stained cells
TRAP activity (RAW 264.7 cells [3]; 50 μg/mL): remarkable decrease in TRAP activity
number of TRAP-stained OCs (OC count) (RAW 264.7 cells [3]; 50 μg/mL): significant reduction in the number of OCs
expression levels of OC differentiation markers (cFos, NFAT2, TRAF6, TRAP; 10 μg/mL GaAcAc): slight decrease in expression levels
expression levels of OC differentiation markers (cFos, NFAT2, TRAF6, TRAP; 50 μg/mL GaAcAc): downregulation of expression levels
toxicity based on weight of animals [4]: did not show detectable toxicity

O=[N+]([O-])[O-].O=[N+]([O-])[O-].O=[N+]([O-])[O-].[Ga+3] [GaN, gallium nitrate]
OC differentiation and function [5]: effectively inhibit OC differentiation and function without affecting OBs

CC1(C)C(/C=C/C=C/C=C/C=C2\N(CCCCS(=O)(=O)O)c3ccc4ccccc4c3C2(C)C)=[N+](CCCCS(=O)(=O)[O-])c2ccc3ccccc3c21 [ICG, Indocyanine green]
fluorescent intensity at injection site ([6]; 8 hrs post-injection, single periosseous injection): diminished
fluorescent intensity at injection site ([6]; 24 hrs post injection): completely disappeared
